Source: patent US7183309B2, “Indole derivatives useful as progesterone receptor modulators” (Janssen Pharmaceutica N.V., priority 2004, dated 2007)

Tested on: T47D human breast cancer cells
Assay: In Vitro Testing-T47 D Assay (alkaline phosphatase assay)
Type: cell-based
Conditions: alkaline phosphatase luminescence readout after 24 h
Experimental: In Vitro Testing-T47 D Assay
T47D human breast cancer cells are grown in RPMI medium without phenol red (Invitrogen) containing 10% (v/v) heat-inactivated fetal bovine serum (FBS; Hyclone), 1% (v/v) penicillin-streptomycin (Invitrogen), 1% (w/v) glutamine (Invitrogen), and […] (Sigma). Incubation conditions are 37° C. in a humidified 5% (v/v) carbon dioxide environment. For assay, the cells are plated in 96-well tissue culture plates at 10,000 cells per well in assay medium [RPMI medium without phenol red (Invitrogen) containing 5% (v/v) charcoal-treated FBS (Hyclone) and 1% (v/v) penicillin-streptomycin (Invitrogen)]. Two days later, the medium is decanted and the compounds are added in a final concentration of 0.1% (v/v) dimethyl sulfoxide in fresh assay medium. Twenty-four hours later, an alkaline phosphatase assay is performed using a SEAP kit (BD Biosciences Clontech, Palo Alto, Calif.). Briefly, the medium is decanted and the cells are fixed for 30 minutes at room temperature with 5% (v/v) formalin (Sigma). The cells are washed once with room temperature Hank's buffered saline solution (Invitrogen). Equal volumes (0.05 mL) of 1× Dilution Buffer, Assay Buffer and 1:20 substrate/enhancer mixture are added. After 1-hour incubation at room temperature in the dark, the lysate is transferred to a white 96-well plate (Dynex) and luminescence is read using a LuminoSkan Ascent (Thermo Electron, Woburn, Mass.).

| IC50 (Homo sapiens, T47D, 24 h) [µM] | SMILES | inhibition at 3 µM (Homo sapiens, T47D, 24 h) [%] | further results |
| --- | --- | --- | --- |
| – | CC(C)(O)c1[nH]c2cc(C(F)(F)F)c([N+](=O)[O-])cc2c1Sc1ccccc1 [Example 1, 2-(5-Nitro-3-phenylsulfanyl-6-trifluoromethyl-1H-indol-2-yl)-propan-2-ol] | – | inhibition at 3 µM (Homo sapiens): 99%; IC50 (Homo sapiens): 0.062 µM |
| > 10 | C=C(C)c1[nH]c2cc(C(F)(F)F)c([N+](=O)[O-])cc2c1Sc1ccccc1 [Example 2, 2-Isopropenyl-5-nitro-3-phenylsulfanyl-6-trifluoromethyl-1H-indole] | – | – |
| 1.4 | O=[N+]([O-])c1ccc(Sc2c(-c3ccccc3)[nH]c3cc(Cl)c(F)cc23)cc1 [Example 3, 6-Chloro-5-fluoro-3-(4-nitro-phenylsulfanyl)-2-phenyl-1H-indole] | 88 | – |
| – | CC(C)(O)c1[nH]c2cc(C(F)(F)F)c(C#N)cc2c1Sc1cccc([N+](=O)[O-])c1 [Example 4, 2-(1-Hydroxy-1-methyl-ethyl)-3-(3-nitro-phenylsulfanyl)-6-trifluoromethyl-1H-indole-5-carbonitrile] | – | inhibition at 3 µM (Homo sapiens): 69%; IC50 (Homo sapiens): 2.19 µM |
| 1.76 | Fc1cc2c(Sc3ccccc3)c(-c3ccccc3)[nH]c2cc1Cl [Example 5, 6-Chloro-5-fluoro-2-phenyl-3-phenylsulfanyl-1H-indole] | 103 | – |
| 1.9 | O=[N+]([O-])c1cccc(Sc2c(-c3ccccc3)[nH]c3cc(Cl)c(F)cc23)c1 [Example 6, 6-Chloro-5-fluoro-3-(3-nitro-phenylsulfanyl)-2-phenyl-1H-indole] | 99 | – |
| 3.62 | O=[N+]([O-])c1cccc(S(=O)(=O)c2c(-c3ccccc3)[nH]c3cc(Cl)c(F)cc23)c1 [Example 7, 6-Chloro-5-fluoro-3-(3-nitro-benzenesulfonyl)-2-phenyl-1H-indole] | – | inh. @ 3 uM: 55% |
| – | O=[N+]([O-])c1cccc(S(=O)(=O)c2c(-c3ccccc3)[nH]c3cc(Cl)c(F)cc23)c1 [Example 8, 6-Chloro-5-fluoro-3-(3-nitro-benzenesulfonyl)-2-phenyl-1H-indole] | – | inh. @ 3 uM: 82%; IC50: 3.18 µM |
